Format in all cases: cell-based
Assay [1] concerns hMPV strain CAN97-83 (gr. A2). The experiment in a line: hMPV A2 EC50 in LLC-MK2 cells. The following applies: read-out: hMPVA2 LLC-MK2 EC50. How it is done:
(§1) LLC-MK2 cells were seeded in 24-well plates at 90% confluence in MEM+10% FBS. Plates were washed with PBS and 500 μL of hMPV (strains CAN99-81 (gr. A1), CAN97-83 (gr. A2), CAN97-82 (B1) or CAN98-75 (gr. B2), containing 40 PFU/mL with the different dilutions of the 4 compounds were added on the cells for 1 h 30 min at 37° C., 5% CO2. After the adsorption period, the medium was removed and cells were washed with PBS. An overlay of Opti-MEM 2×+methycellulose 1.6% (1:1) containing the same concentrations of compounds as in the adsorption period was added to the wells. A positive control consisting of ribavirin was also tested with concentrations ranging from 1 μM to 100 μM. The plates were incubated at 37° C., 5% CO2 for 3-5 days. After the incubation period, the cells were fixed with 7% formalin for 1 h at room temperature. hMPV titers were determined using a Mab specific for the F protein (clone hMPV24, ABD Serotec, Inc.) diluted 1/10 000 and a second anti-mouse IgG HRP antibody (GeneScriptCorp) diluted 1/2500. Finally, KPL True Blue was used to reveal infected cells.

Assay [2] relates to hMPV strain CAN99-81 (gr. A1). The assay is described as follows: hMPV A1 EC50 in LLC-MK2 cells. The following applies: read-out: hMPVA1 LLC-MK2 EC50. The protocol:
as §1

The test system of assay [3] is hMPV strain CAN97-82 (B1). The assay is described as follows: hMPV B1 EC50 in LLC-MK2 cells. The conditions noted are these: read-out: hMPVB1 LLC-MK2 EC50. How it is done: as §1
For assay [4], the system named is hMPV strain CAN98-75 (gr. B2). The experiment in a line: hMPV B2 EC50 in LLC-MK2 cells. The conditions noted are these: read-out: hMPVB2 LLC-MK2 EC50. The protocol: as §1

The term EC50 denotes the midpoint of the concentration-response curve. On to `COC(=O)[C@H](C)N[P@](=O)(OC[C@@]1(C#N)O[C@@H](c2ccc3c(N)ncnn23)[C@H](OC(=O)C(C)C)[C@@H]1OC(=O)C(C)C)Oc1ccccc1` (single isomer, unassigned) [Example 140], for which the EC50 worked out at 190 nM in assay [1], 160 nM in assay [2], 210 nM in assay [3] and 230 nM in assay [4].

The record behind these values is US12264173B2 (GILEAD SCIENCES, INC., priority 2020, dated 2025).
